# Test results published in patent publication US7166440B2, “2,4,5-trichlorophenoxyalkyl carboxylic acid and a method for determining dioxins using the same” (priority 2003, dated 2007).
# Legend:
# [1] = test system: anti-dioxin antibody (monoclonal antibody) to 1,2,3,7,8-PeCDF; format: binding, mouse; conditions: Table 2, dioxins having TEF; solid-phase antigen (IIa); antibody to 1,2,3,7,8-PeCDF
# Method: (§1) First, the immune antigen or the compound (IIa) conjugated with BSA that was produced in Example 2 was diluted with PBS to 1 μg/ml, and divided into each well of a 96-well assay plate (manufactured by Costar, Cat. No. 3590) in an amount of 50 μl. Then, the plate was sealed and allowed to stand at room temperature for one hour. Then, each well was washed with PBS containing 0.005% of Tween 20 three times. Next, 300 μl of Block Ace (manufactured by Snow Brand Milk Products Co., Ltd.) diluted with distilled water to a concentration of 25% was supplied to each well, and the plate was sealed and allowed to stand at 37° C. for two hours. Each well was washed with PBS containing 0.005% of Tween 20 three times. Then, a 25 μl of the dioxin compound solution of a final concentration of 5×10^−7 M was added to each well. The dioxin compound solution was prepared by diluting the dioxin with a dilution solvent comprising 20% DMSO and 0.01% of Triton X100. As controls, a dilution solvent in an amount of 25 μl was added to each well. Immediately after the addition of the dioxin compound solution or the dilution solvent, 25 μl of an antibody solution diluted with PBS containing 1 mg/ml of BSA was added to each well. The assay plate was stand at room temperature for one hour with slightly shaking.
# (§2) After washing with PBS containing 0.005% of Tween 20 three times, 50 μl of the diluted HRP-labeled goat anti-mouse IgG (H+L) antibody (produced by affinity purification) was added to each well. The diluted HRP-labeled antibody was prepared by diluting the purchased HRP-labeled antibody to 2000 times as much with 10% Block Ace. The plate was allowed to stand at room temperature for one hour, followed by washing with PBS containing 0.005% of Tween 20 three times. Then, 50 μl of a HRP substrate, TMB (manufactured by KPL Co., Ltd.), was added to each well and allowed to stand at room temperature for 5 to 10 min. Then, 5 μl of a 1 M phosphate solution was added to each well, and the absorbance at a wavelength of 455 nm (655 nm for the reference) was measured with a spectrophotometer for a microtiter. The reactivity was evaluated by obtaining the absorbance (B0) at the time when the dioxin compound is not added, which is a control (diluent) and the absorbance (B) at the time when the dioxin compound is added. The inhibition rate was measured based on the following equation. Inhibition rate={(B0−B)/B0}×100 (%)
# An anti-dioxin antibody (monoclonal antibody) to 1,2,3,7,8-PeCDF is used as an antibody. A haptenized product of a solid-phase antigen 6-(2,4,5-trichlorophenoxy) hexanoic acid amide derivative (IIa) and the chlorine-containing organic compounds in Tables 2 and 3 were allowed to compete with each other to this anti-dioxin antibody so that a competitive reaction was effected in the same manner as in Example 3. Then, the cross-reactivity was examined.
# [2] = test system: monoclonal antibody of clone C-1 (anti-dioxin antibody); assay: Competitive EIA: inhibition of binding of clone C-1 monoclonal antibody to solid-phase antigen by free dioxin; design: species or system mouse
# Method: (§3) Using various monoclonal antibodies, the specificity of the monoclonal antibodies to dioxin isomers was examined. The monoclonal antibodies were prepared in the following manner. An antibody-producing cell was injected into the abdominal cavity of a pristane-pretreated mouse. Th ascites fluid in the abdominal cavity caused by the growth of the cells was collected, and then a monoclonal antibody was purified by affinity chromatography using a protein G-Sepharose (manufactured by BIO-RAD Co.) as a carrier. Using three antibody-producing clones C-1, C-2 and C-3, respective monoclonal antibodies were prepared. The clones C-1, C-2 and C-3 produce monoclonal antibodies with respect to dibenzodioxin having chlorine atom at the 2-, 3-, 7-, and 8-positions.
# (§4) To evaluate the specificity of the monoclonal antibody was performed according to the following principles. A solid-phase antigen (competitor) and a free dioxin (ligand) are allowed to compete with each other with respect to a free monoclonal antibody (anti-dioxin antibody). If the reactivity of the monoclonal antibody and the dioxin is higher than that of the monoclonal antibody and the solid-phase antigen, the binding of the monoclonal antibody to the solid-phase antigen is reduced. This reduction of the binding of the monoclonal antibody to the solid-phase antigen can be measured by color development method. This phenomenon can be applied to evaluate the specificity.
# as §1, §2
# (§5) Evaluation was such that the larger this inhibition rate is, the higher the specificity of the anti-dioxin antibody to the dioxin compound.
# [3] = test system: monoclonal antibody of clone C-2 (anti-dioxin antibody); assay: Competitive EIA: inhibition of binding of clone C-2 monoclonal antibody to solid-phase antigen by free dioxin; design: species or system mouse
# Method: as §3, §4, §1, §2, §5
# [4] = test system: monoclonal antibody of clone C-3 (anti-dioxin antibody); assay: Competitive EIA: inhibition of binding of clone C-3 monoclonal antibody to solid-phase antigen by free dioxin; design: species or system mouse
# Method: as §3, §4, §1, §2, §5
# [5] = toxicity equivalent factor of the dioxins used; cited from earlier work
# [6] = solid-phase antigen * (haptenized product of 6-(2,4,5-trichlorophenoxy) hexanoic acid amide derivative IIa), dioxin compound 5×10^−7 M
# [7] = solid-phase antigen immunogen 1, dioxin compound final concentration 5×10^−7 M
# [8] = solid-phase antigen immunogen 2, dioxin compound final concentration 5×10^−7 M
# [9] = solid-phase antigen immunogen 3, dioxin compound final concentration 5×10^−7 M
Compound,cross reaction [1],"Inhibition rate [2, 6]","Inhibition rate [2, 7]","Inhibition rate [3, 6]","Inhibition rate [3, 8]","Inhibition rate [4, 6]","Inhibition rate [4, 9]",TEF value [5]
"Clc1cc2c(cc1Cl)Oc1cc(Cl)c(Cl)cc1O2 [2,3,7,8-TeCDD, 2,3,7,8-tetrachlorozibenzo-p-dioxin]",1.1%,7.4%,0.4%,7.7%,−3.0%,−3.4%,−0.2%,1
"Clc1cc2oc3cc(Cl)c(Cl)cc3c2cc1Cl [2,3,7,8-TeCDF]",1.5%,8.4%,1.6%,37.6%,15.3%,4.3%,−1.6%,0.1
Clc1c(Cl)c(Cl)c2c(c1Cl)Oc1c(Cl)c(Cl)c(Cl)c(Cl)c1O2 [OCDD],<0.1%,1.6%,−2.5%,9.4%,0.1%,−3.7%,−0.4%,0.0001
Clc1c(Cl)c(Cl)c2c(oc3c(Cl)c(Cl)c(Cl)c(Cl)c32)c1Cl [OCDF],8.0%,27.0%,1.1%,7.2%,18.1%,4.9%,1.3%,0.0001
